Data as given in patent US4252808A, “β-Lactam antibacterial agents, their use in pharmaceutical compositions, the process for their preparation and intermediates for use in that process” (Beecham Group Limited, priority 1978, dated 1981).
Converted amounts (≈) assume the structure as drawn. Counter-ions that a name gives are not always drawn.

Key:
Type in all cases: cell-based
[1] = test system: β-Haemolytic Strep CN10; test: MIC, nutrient agar
[2] = test system: Staph. aureus Oxford; test: MIC, nutrient agar; settings: Staphylococcus aureus
[3] = test system: Staph. aureus Russell; test: MIC, nutrient agar; settings: Staphylococcus aureus, Staph. aureus Russell (lactamase-producing strain)
Description: *Lactamase-producing strain
*lactamase producing strain

[4] = test system: B. subtilis; test: MIC, nutrient agar; settings: Bacillus subtilis
[5] = test system: Staph. aureus Oxford; test: MIC, nutrient broth (10^-4 dilution); settings: Staphylococcus aureus
[6] = test system: E. coli JT 1; test: MIC, nutrient broth (10^-4 dilution); settings: Escherichia coli, JT1
[7] = test system: E. coli NCTC 10418; test: MIC, nutrient broth (10^-4 dilution); settings: Escherichia coli, NCTC10418
[8] = test system: Staph. aureus Russell; test: MIC, nutrient broth (10^-4 dilution); settings: Staphylococcus aureus, Staph. aureus Russell (lactamase producing strain)
Description: *Lactamase producing strains
*Lactamase producing strain

[9] = test system: E. coli NCTC 10418; test: MIC, nutrient broth; settings: Escherichia coli, NCTC10418
[10] = test system: Staph. aureus Russell; test: MIC, nutrient broth; settings: Staphylococcus aureus, Staph. aureus Russell (lactamase producing strain)
Description: | *lactamase producing strain

[11] = test system: E. coli JT 1; test: MIC, nutrient broth; settings: Escherichia coli, JT1
[12] = test system: Staph. aureus Oxford; test: MIC, nutrient broth; settings: Staphylococcus aureus
[13] = test system: P. mirabilis C977; test: MIC, nutrient agar; settings: Proteus mirabilis
[14] = test system: P. morganii; test: MIC, nutrient agar; settings: Morganella morganii
[15] = test system: Enterobacter cloacae Nl; test: MIC, nutrient agar
[16] = test system: Ps. aeruginosa Dalgleish; test: MIC, nutrient agar; settings: Pseudomonas aeruginosa, Ps. aeruginosa Dalgleish 10^-2
[17] = test system: E. coli JT 4; test: MIC, nutrient agar; settings: Escherichia coli, JT4
[18] = test system: Klebsiella aerogenes A; test: MIC, nutrient agar
[19] = test system: P. rettgeri; test: MIC, nutrient agar; settings: Providencia rettgeri

O=C(COc1ccccc1)N[C@@H]1C(=O)N2C(C(=O)O)=Cc3cnnn3[C@H]12 [Compound 11, (3aR,4S)4,5-dihydro-5-oxo-4-phenoxyacetamido-3aH-azeto-[1,2-a]v-triazolo[3,4-c]pyrimidine-7-carboxylic acid]
MIC [1]: 10 µg/mL (≈ 28.1 µM)
MIC [2]: 10 µg/mL (≈ 28.1 µM)
MIC [3]: 50 µg/mL (≈ 141 µM)
MIC [4]: 2.5 µg/mL (≈ 7.04 µM)

O=C(O)C1=Cc2c(-c3ccccc3)nnn2[C@@H]2[C@H](NC(=O)[C@H](O)c3ccccc3)C(=O)N12 [Compound 18, (3aR,4S) 4,5-Dihydro-5-oxo-9-phenyl-4-D-mandelylamino-3aH-azeto-[1,2a]v-triazolo[3,4-c]pyrimidine-7-carboxylic acid]
MIC [5]: 31 µg/mL (≈ 71.9 µM)
MIC [6]: 125 µg/mL (≈ 290 µM)
MIC [7]: 125 µg/mL (≈ 290 µM)
MIC [8]: 125 µg/mL (≈ 290 µM)

N[C@@H](C(=O)N[C@@H]1C(=O)N2C(C(=O)O)=Cc3c(-c4ccccc4)nnn3[C@H]12)c1ccccc1 [Compound 24, (3aR,4S)-4,5-Dihydro-5-oxo-9-phenyl-4-D-α-phenylglycylamino-3aH-azeto[1,2-a]v-triazolo [3,4-c]pyrimidine-7-carboxylic acid, trifluoroacetic acid salt]
MIC [5]: 62 µg/mL
MIC [6]: 125 µg/mL
MIC [7]: 125 µg/mL
MIC [8]: 125 µg/mL

O=C(COc1ccccc1)N[C@@H]1C(=O)N2C(C(=O)O)=Cc3c(-c4ccc([N+](=O)[O-])cc4)nnn3[C@H]12 [Compound 33, (3aR,4S) 4,5-Dihydro-5-oxo-9-p-nitrophenyl-4-phenoxy-acetamido-3aH azeto[1,2-a]v-triazolo[3,4-c]pyrimidine-7-carboxylic acid]
MIC [9]: 500 µg/mL (≈ 1050 µM)
MIC [10]: 31 µg/mL (≈ 65.1 µM)
MIC [11]: 500 µg/mL (≈ 1050 µM)
MIC [12]: 16 µg/mL (≈ 33.6 µM)

CC1=C(C(=O)O)N2C(=O)[C@@H](NC(=O)COc3ccccc3)[C@H]2n2nncc21 [Compound 41, (3aR,4S) 4,5-Dihydro-5-oxo-8-methyl-4-phenoxyacetamido-3aH azeto[1,2-a]v-triazolo[3,4-c]pyrimidine-7-carboxylate acid]
MIC [13]: > 100 µg/mL
MIC [14]: > 100 µg/mL
MIC [15]: 100 µg/mL (≈ 271 µM)
MIC [16]: 100 µg/mL (≈ 271 µM)
MIC [17]: 100 µg/mL (≈ 271 µM)
MIC [18]: 100 µg/mL (≈ 271 µM)
MIC [19]: 100 µg/mL (≈ 271 µM)
MIC [1]: 0.5 µg/mL (≈ 1.35 µM)
MIC [2]: 2.5 µg/mL (≈ 6.77 µM)
MIC [3]: 5 µg/mL (≈ 13.5 µM)
MIC [4]: < 0.2 µg/mL
